Data taken from article PMC11772769, “Selective cargo and membrane recognition by SNX17 regulates its interaction with Retriever” (EMBO Reports, 2024).
Numbering of substitutions follows the chain as printed. Where two headings read alike, the source gives them in different places. Where no end group is shown, it is not given here.

Key:
[1] = biological target: T1, SNX17FERM-CT (amino acids 109-470) (Homo sapiens, UniProt Q15036); assay: Fluorescence anisotropy binding of 5-FAM cargo peptides to SNX17FERM-CT
T1 construct: His-Sumo3 (N, cleaved yes); made in house; host or cells: Escherichia coli BL21(DE3)
T1 sequence (Q15036 109-470): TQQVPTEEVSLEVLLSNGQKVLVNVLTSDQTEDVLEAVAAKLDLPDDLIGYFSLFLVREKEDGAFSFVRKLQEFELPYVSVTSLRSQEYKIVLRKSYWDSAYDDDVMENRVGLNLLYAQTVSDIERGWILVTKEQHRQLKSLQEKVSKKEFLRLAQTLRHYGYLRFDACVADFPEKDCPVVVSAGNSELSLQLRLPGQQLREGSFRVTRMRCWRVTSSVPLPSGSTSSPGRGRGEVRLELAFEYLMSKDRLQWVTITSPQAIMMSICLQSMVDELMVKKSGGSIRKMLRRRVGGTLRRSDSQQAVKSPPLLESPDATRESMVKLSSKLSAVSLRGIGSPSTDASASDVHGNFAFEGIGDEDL
Protocol: (§1) Lyophilized peptides were resuspended in 100 mM Hepes pH 8.0 at 5 mg/ml and further diluted in the assay buffer (50 mM Hepes pH 7.5, 300 mM NaCl, and 1 mM DTT). […] The mixture was incubated at 25 °C for at least 30 min and then transferred to 96 Flat Black plates. Fluorescence anisotropy was measured at 25 °C using Spark 10M Plate Reader (Tecan) with a 485/20 excitation filter and a 535/35 emission filter. The dissociation constants were calculated in GraphPad Prism by nonlinear regression fitting of the experimental data to a one-site total binding model. The final KD measurement is the mean of at least two independent experiments.

MBP = MBP (Escherichia coli, UniProt P0AEX9); assay: Fluorescence anisotropy, MBP negative control; type: binding
Protocol: as §1

MBP-SNX17 WT = biological target: T2, MBP-SNX17 WT (Homo sapiens, UniProt Q15036); assay: Fluorescence anisotropy binding of 5-FAM peptides to MBP-SNX17 wild-type
T2 construct: M protein marker, R Retriever complex, FL full-length; His (N, cleaved yes); made in house; host or cells: Escherichia coli BL21(DE3)
T2 sequence (Q15036 1-470): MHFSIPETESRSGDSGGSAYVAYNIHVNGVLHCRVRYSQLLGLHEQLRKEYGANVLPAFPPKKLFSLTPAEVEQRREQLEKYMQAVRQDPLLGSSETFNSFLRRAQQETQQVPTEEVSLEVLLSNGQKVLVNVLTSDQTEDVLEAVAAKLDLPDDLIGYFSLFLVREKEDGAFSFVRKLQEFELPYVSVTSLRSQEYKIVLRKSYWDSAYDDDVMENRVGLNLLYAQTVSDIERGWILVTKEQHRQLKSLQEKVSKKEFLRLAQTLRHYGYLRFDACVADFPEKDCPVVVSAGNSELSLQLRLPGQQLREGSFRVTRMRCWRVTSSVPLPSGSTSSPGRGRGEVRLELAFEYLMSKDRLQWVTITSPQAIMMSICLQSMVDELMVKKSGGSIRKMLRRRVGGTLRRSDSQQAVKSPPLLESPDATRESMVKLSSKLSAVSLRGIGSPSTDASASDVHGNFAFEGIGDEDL
Protocol: as §1

MBP-SNX17 L470G = biological target: T3, MBP-SNX17 L470G (Homo sapiens, UniProt Q15036, L470G); assay: Fluorescence anisotropy binding of 5-FAM cargo peptides to MBP-SNX17 L470G
T3 construct: M protein marker, R Retriever complex, FL full-length; His (N, cleaved yes); made in house; host or cells: Escherichia coli BL21(DE3)
T3 sequence (Q15036 1-470 L470G): T2 sequence (Q15036 1-470) with L470G
Protocol: as §1, with “The peptides used for binding assays were synthesized with an N-terminal 5-Carboxyfluorescein (FAM) and HPLC purified (≥95%) by GenScript. Lyophilized” for “Lyophilized”

MBP-SNX17H457A = biological target: T4, MBP-SNX17H457A (Homo sapiens, UniProt Q15036, H457A); assay: Fluorescence anisotropy binding of 5-FAM peptides to MBP-SNX17 H457A
T4 construct: M protein marker, R Retriever complex, FL full-length; His (N, cleaved yes); made in house; host or cells: Escherichia coli BL21(DE3)
T4 sequence (Q15036 1-470 H457A): T2 sequence (Q15036 1-470) with H457A
Protocol: as §1

KLITYDNPAYEGID [L2 14-mer]
Kd [1]: 640 nM | Kd (MBP; 0.1 μM 5-FAM peptide, pH 7.5, 300 mM NaCl, 25 °C (Fig. EV3B), read-out: KD MBP (negative control)): > 32000 nM | Kd (MBP; 5-FAM peptide, replicate Y1, sheet KD-L2-14-mer, unit inferred, read-out: KD MBP): > 32000 nM | Kd (MBP; 5-FAM peptide, replicate Y2, sheet KD-L2-14-mer, unit inferred, read-out: KD MBP): > 32000 nM | Kd (MBP; 5-FAM peptide, replicate Y3, sheet KD-L2-14-mer, unit inferred, read-out: KD MBP): > 32000 nM | Kd (MBP-SNX17 WT): 1100 ± 100 nM | Kd (MBP-SNX17 L470G): 1100 ± 600 nM | Kd (MBP-SNX17H457A): 1100 ± 300 nM
